These results are taken from patent publication US8912209B2, “Rock inhibitors” (Amakem NV, priority 2010, dated 2014).

Bounds are passed on as bounds.

For test [1], the target named is T1, ROCKα/ROCKII (Homo sapiens, UniProt O75116).
T1 construct: purchased Upstate Biotechnology 14-451
As to the kind of experiment: ROCK inhibition, Method 2 fluorescence polarization (FP) assay, ROCK IMAP Kit. It is filed as biochemical. Particulars: 10 μM ATP, read-out: IC50 Meth. 2. How it is done: The inhibition assays were performed with a fluorescence polarization (FP) assay using the commercially available ROCK IMAP Kit from Molecular Devices (Product ID. No. R8093), essentially in accordance with the protocol supplied by the manufacturer. […] The enzyme mix ROCKα/ROCKII was obtained from Upstate Biotechnology (Product ID No 14-451).
In summary, all compounds were screened in the wells of a 384 well plate for enzymatic inhibition with concentrations varying from 100 μM to 0.3 nM using a stepwise 3 (or 2)-fold dilution.
To perform the assay, 1 μl of a solution of the compound to be tested in DMSO (at each concentration) was added to 2 μl of a solution of the enzyme in 10 mM Tris-HCl, 10 mM MgCl2, 0.1% BSA, 0.05% NaN3, pH 7,2. The final concentration of the enzyme was 2.6 nM.
After incubating for 30 minutes at RT, 2 μl of a mixture of ATP and the protein substrate in 10 mM Tris-HCl, 10 mM MgCl2, 0.1% BSA, 0.05% NaN3, pH 7.2 was added. The final concentration of the ATP was 10 μM and final concentration of protein substrate was 0.2 μM.
After incubating for 60 minutes at RT, 12 μl of the IMAP Binding Solution (mix of the IMAP Binding Buffer A (1×) and the IMAP Binding Reagent (from the ROCK IMAP kit)) was added.
The mixture thus obtained (total volume: 17 μl) was incubated for 60 minutes at RT, upon which the fluorescence polarization was measured using an automated plate reader (Perkin Elmer, Model Envision 2100-0010 HTS) with FP filters: excitation filter FITC FP 480 and emission filters FITC FP P-pol 535 and FITC FP S-pol 535 (Perkin-Elmer). The results were fitted to a curve using the XL-Fit algorithm and IC50 values were calculated for each fitted curve, again using the XL-Fit algorithm.
On the technique in general: Polarisation of emitted light reports the rotation of a fluorescent probe.

Test [2] deals with T2, ROCK II (Homo sapiens, UniProt O75116).
T2 construct: purchased Proqinase
As to the kind of experiment: ROCK II kinase inhibition, Method 1 Proqinase setup (33P radioisotopic protein kinase assay). It is filed as biochemical. As to conditions: 33P radioisotopic assay, 1 μM ATP, read-out: IC50 Meth. 1. The method, then:
A ^33P radioisotopic protein kinase assay is used to determine the IC50 for inhibiting ROCK II. A final 50 μl reaction cocktail, containing 60 mM HEPES-NaOH (pH 7.5), 3 mM MgCl2, 3 mM MnCl2, 3 μM Na-orthovanadate, 1.2 mM DTT, 1 μM ATP, 50 μg/ml PEG20.000, 1% (v/v) DMSO, 1 μM ATP (approx. 3×10^5 cpm ^33P-γ-ATP), the substrate (Substrate: S6 peptide—2000 ng/well) and recombinant protein kinase (0.5 nM-2.5 ng/well) is mixed on a shaker and incubated at 30° C. for 80 minutes. The reaction is stopped by the addition of 50 μl of a 2% solution of H3PO4 and mixed on a shaker. After washing twice with 200 μl of a 0.9% solution of NaCl, the dry plate is counted.

T1 sequence (O75116 whole entry): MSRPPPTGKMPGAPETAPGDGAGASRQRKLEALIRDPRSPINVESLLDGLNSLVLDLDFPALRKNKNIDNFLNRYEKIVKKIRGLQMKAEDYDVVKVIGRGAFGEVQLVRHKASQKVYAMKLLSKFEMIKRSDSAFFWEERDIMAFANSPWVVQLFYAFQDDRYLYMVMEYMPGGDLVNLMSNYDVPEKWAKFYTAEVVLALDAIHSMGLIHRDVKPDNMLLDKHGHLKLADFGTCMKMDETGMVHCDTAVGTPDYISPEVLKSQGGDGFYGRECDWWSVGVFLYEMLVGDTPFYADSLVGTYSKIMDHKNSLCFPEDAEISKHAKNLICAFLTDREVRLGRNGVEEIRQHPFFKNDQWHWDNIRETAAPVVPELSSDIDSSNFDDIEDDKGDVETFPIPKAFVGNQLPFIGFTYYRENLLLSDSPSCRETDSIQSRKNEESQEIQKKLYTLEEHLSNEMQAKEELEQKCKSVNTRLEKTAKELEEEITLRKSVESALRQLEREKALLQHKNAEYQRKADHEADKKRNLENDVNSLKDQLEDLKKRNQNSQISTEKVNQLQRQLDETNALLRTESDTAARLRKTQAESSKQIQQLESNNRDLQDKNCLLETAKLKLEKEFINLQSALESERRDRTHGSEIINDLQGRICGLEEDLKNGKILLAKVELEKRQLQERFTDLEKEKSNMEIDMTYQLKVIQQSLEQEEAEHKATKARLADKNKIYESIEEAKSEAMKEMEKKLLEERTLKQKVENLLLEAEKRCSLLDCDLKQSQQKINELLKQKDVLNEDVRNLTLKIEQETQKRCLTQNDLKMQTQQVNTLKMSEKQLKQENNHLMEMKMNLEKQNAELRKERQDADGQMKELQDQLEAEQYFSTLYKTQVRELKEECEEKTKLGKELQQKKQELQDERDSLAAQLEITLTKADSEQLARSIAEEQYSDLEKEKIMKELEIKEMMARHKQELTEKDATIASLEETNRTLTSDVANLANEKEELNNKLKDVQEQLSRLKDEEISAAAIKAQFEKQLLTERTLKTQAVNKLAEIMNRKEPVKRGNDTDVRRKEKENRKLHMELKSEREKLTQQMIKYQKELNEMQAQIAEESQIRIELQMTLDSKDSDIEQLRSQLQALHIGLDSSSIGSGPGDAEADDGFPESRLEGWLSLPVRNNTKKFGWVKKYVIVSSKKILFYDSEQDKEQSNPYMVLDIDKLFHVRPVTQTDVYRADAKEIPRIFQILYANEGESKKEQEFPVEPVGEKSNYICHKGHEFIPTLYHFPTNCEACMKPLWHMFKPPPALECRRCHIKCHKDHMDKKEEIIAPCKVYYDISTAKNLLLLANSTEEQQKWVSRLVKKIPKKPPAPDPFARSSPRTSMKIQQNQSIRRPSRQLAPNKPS
T2 sequence (O75116 whole entry): as above

On to `CC(N)c1ccc(C(=O)Nc2ccncc2)cc1-c1c[nH]c(C(=O)Oc2ccccc2)c1` (stereo not drawn) [Compound 170, 4-[2-(1-Amino-ethyl)-5-(pyridin-4-ylcarbamoyl)-phenyl]-1H-pyrrole-2-carboxylic acid phenyl ester], for which the IC50 in test [1] is less than 100 nM; in test [2] it was 100 to 1000 nM. Turning to `CCCCOC(=O)c1cccc(-c2cc(C(=O)Nc3ccncc3)ccc2C(C)N)c1` (stereo not drawn) [Compound 13, 2′-(1-Amino-ethyl)-5′-(pyridin-4-ylcarbamoyl)-biphenyl-3-carboxylic acid butyl ester], the IC50 in test [1] and in test [2] was less than 100 nM in each case. `CC(N)c1ccc(C(=O)Nc2ccncc2)cc1-c1cccc(C(=O)OCCCOc2ccccc2)c1` (stereo not drawn) [Compound 88, 2′-(1-Amino-ethyl)-5′-(pyridin-4-ylcarbamoyl)-biphenyl-3-carboxylic acid 3-phenoxy-propyl ester]: the 50% inhibitory concentration (IC50) in test [1] is 100 to 1000 nM; in test [2], less than 100 nM. With `CC(N)c1ccc(C(=O)Nc2ccncc2)cc1-c1cccc(C(=O)OCc2ccoc2)c1` (stereo not drawn) [Compound 90, 2′-(1-Amino-ethyl)-5′-(pyridin-4-ylcarbamoyl)-biphenyl-3-carboxylic acid furan-3-ylmethyl ester], the 50% inhibitory concentration (IC50) in test [1] is 100 to 1000 nM; in test [2], less than 100 nM. Consider `CCCOC(=O)c1cccc(-c2cc(C(=O)Nc3ccncc3)ccc2C(C)N)c1` (stereo not drawn) [Compound 11, 2′-(1-Amino-ethyl)-5′-(pyridin-4-ylcarbamoyl)-biphenyl-3-carboxylic acid propyl ester], for which the IC50 in test [1] and in test [2] was less than 100 nM throughout. On to `CC(N)c1ccc(C(=O)Nc2ccncc2)cc1-c1cccc(OCCCSC2CCOC2=O)c1` (stereo not drawn) [Compound 131, 6-(1-Amino-ethyl)-3′-[3-(2-oxo-tetrahydro-furan-3-ylsulfanyl)-propoxy]-biphenyl-3-carboxylylic acid pyridin-4-ylamide], for which the IC50 in test [1] and in test [2] was 100 to 1000 nM in each case.

On to `COC(=O)c1cccc(-c2cc(C(=O)Nc3ccncc3F)ccc2C(C)N)c1` (stereo not drawn) [Compound 5, 2′-(1-Amino-ethyl)-5′-(3-fluoro-pyridin-4-ylcarbamoyl)-biphenyl-3-carboxylic acid methyl ester], for which the results for the IC50 in test [1] and in test [2] were less than 100 nM and 100 to 1000 nM, respectively. In the case of `CC(N)c1ccc(C(=O)Nc2ccncc2)cc1-c1cccc(C(=O)OCCF)c1` (stereo not drawn) [Compound 60, 2′-(1-Amino-ethyl)-5′-(pyridin-4-ylcarbamoyl)-biphenyl-3-carboxylic acid 2-fluoro-ethyl ester], the IC50 was less than 100 nM in test [1] and 100 to 1000 nM in test [2]. For `CC(C)COC(=O)c1cccc(-c2cc(C(=O)Nc3ccncc3F)ccc2C(C)N)c1` (stereo not drawn) [Compound 28, 2′-(1-Amino-ethyl)-5′-(3-fluoro-pyridin-4-ylcarbamoyl)-biphenyl-3-carboxylic acid isobutyl ester], the IC50 in test [1] and in test [2] was 100 to 1000 nM each time. On to `COC(=O)c1cc(-c2cc(C(=O)Nc3ccncc3)ccc2C(C)N)c[nH]1` (stereo not drawn) [Compound 168, 4-[2-(1-Amino-ethyl)-5-(pyridin-4-ylcarbamoyl)-phenyl]-1H-pyrrole-2-carboxylic acid methyl ester], for which the IC50 in test [1] and in test [2] was 100 to 1000 nM throughout.

With `CC(N)c1ccc(C(=O)Nc2ccncc2F)cc1-c1cccc(C(=O)OCC2CC2)c1` (stereo not drawn) [Compound 37, 2′-(1-Amino-ethyl)-5′-(3-fluoro-pyridin-4-ylcarbamoyl)-biphenyl-3-carboxylic acid cyclopropylmethyl ester], the IC50 was less than 100 nM in test [1] and 100 to 1000 nM in test [2]. With `CC(N)c1ccc(C(=O)Nc2ccncc2)cc1-c1cccc(OC2CCOC2=O)c1` (stereo not drawn) [Compound 134, 6-(1-Amino-ethyl)-3′-(2-oxo-tetrahydro-furan-3-yloxy)-biphenyl-3-carboxylic acid pyridin-4-ylamide], the IC50 was less than 100 nM in test [1] and 100 to 1000 nM in test [2]. Turning to `CC(N)c1ccc(C(=O)Nc2ccncc2)cc1-c1cccc(C(=O)OCC2CCCCO2)c1` (stereo not drawn) [Compound 45, 2′-(1-Amino-ethyl)-5′-(pyridin-4-ylcarbamoyl)-biphenyl-3-carboxylic acid tetrahydro-pyran-2-ylmethyl ester], the IC50 in test [1] and in test [2] was less than 100 nM throughout. Turning to `CC(N)c1ccc(C(=O)Nc2ccncc2)cc1-c1cccc(C(=O)OCC2CCCO2)c1` (stereo not drawn) [Compound 44, 2′-(1-Amino-ethyl)-5′-(pyridin-4-ylcarbamoyl)-biphenyl-3-carboxylic acid tetrahydro-furan-2-ylmethyl ester], the concentration for half-maximal inhibition (IC50) in test [1] and in test [2] was less than 100 nM in each case. With `CCCCCOC(=O)c1cccc(-c2cc(C(=O)Nc3ccncc3)ccc2CN)c1` [Compound 15, 2′-Aminomethyl-5′-(pyridin-4-ylcarbamoyl)-biphenyl-3-carboxylic acid pentyl ester], the IC50 in test [2] lay in the range of 100 to 1000 nM.

With `NCc1ccc(C(=O)Nc2ccncc2)cc1-c1cccc(C(=O)OCC2CCCCC2)c1` [Compound 39, 2′-Aminomethyl-5′-(pyridin-4-ylcarbamoyl)-biphenyl-3-carboxylic acid cyclohexylmethyl ester], in test [2], the IC50 lay within 100 to 1000 nM. Regarding `COC(=O)c1cc2c(-c3cc(C(=O)Nc4ccncc4)ccc3C(C)N)cccc2[nH]1` (stereo not drawn) [Compound 171, 4-[2-(1-Amino-ethyl)-5-(pyridin-4-ylcarbamoyl)-phenyl]-1H-indole-2-carboxylic acid methyl ester], the IC50 in test [2] lay in the range of 100 to 1000 nM.

`NCc1ccc(C(=O)Nc2ccncc2F)cc1-c1cccc(C(=O)OCCF)c1` [Compound 178]: the IC50 in test [2] is 100 to 1000 nM. Take `CCCOC(=O)c1cc2c(-c3cc(C(=O)Nc4ccncc4)ccc3C(C)N)cccc2[nH]1` (stereo not drawn) [Compound 172, 4-[2-(1-Amino-ethyl)-5-(pyridin-4-ylcarbamoyl)-phenyl]-1H-indole-2-carboxylic acid propyl ester]: the IC50 in test [1] and in test [2] was 100 to 1000 nM throughout. Turning to `CCCOC(=O)CCc1cccc(-c2cc(C(=O)Nc3ccncc3)ccc2C(C)N)c1` (stereo not drawn) [Compound 166, 3-[2′-(1-Amino-ethyl)-5′-(pyridin-4-ylcarbamoyl)-biphenyl-3-yl]-propionic acid propyl ester], the IC50 in test [1] and in test [2] was 100 to 1000 nM in each case.

Consider `CCOC(=O)c1cccc(-c2cc(C(=O)Nc3ccncc3)ccc2C(C)N)c1` (stereo not drawn) [Compound 8, 2′-(1-Amino-ethyl)-5′-(pyridin-4-ylcarbamoyl)-biphenyl-3-carboxylic acid ethyl ester], for which the IC50 in test [1] and in test [2] was less than 100 nM throughout. For the compound `COC(=O)C1CCN(C(=O)c2cccc(-c3cc(C(=O)Nc4ccncc4)ccc3CN)c2)CC1` [Compound 124, 1-[2′-Aminomethyl-5′-(pyridin-4-ylcarbamoyl)-biphenyl-3-carbonyl]-piperidine-4-carboxylic acid methyl ester], in test [2], the IC50 lay in the range of 1000 to 10000 nM. Turning to `NCc1ccc(C(=O)Nc2ccncc2F)cc1-c1cccc(C(=O)OCc2ccccc2)c1` [Compound 180], in test [2], the IC50 lay within 100 to 1000 nM. On to `CCSC(=O)COc1cccc(-c2cc(C(=O)Nc3ccncc3)ccc2CN)c1` [Compound 143, [2′-Aminomethyl-5′-(pyridin-4-ylcarbamoyl)-biphenyl-3-yloxy]-thioacetic acid S-ethyl ester], for which the IC50 in test [2] was 100 to 1000 nM. Still for that read-out and setting: with `CCCCOC(=O)c1cccc(-c2cc(C(=O)Nc3ccncc3)ccc2CN)c1` [Compound 14, 2′-Aminomethyl-5′-(pyridin-4-ylcarbamoyl)-biphenyl-3-carboxylic acid butyl ester] the figure was 100 to 1000 nM; with `NCc1ccc(C(=O)Nc2ccncc2)cc1-c1cccc(C(=O)OCC2CCCC2)c1` [Compound 38, 2′-Aminomethyl-5′-(pyridin-4-ylcarbamoyl)-biphenyl-3-carboxylic acid cyclopentylmethyl ester], 100 to 1000 nM. `NCc1ccc(C(=O)Nc2ccncc2F)cc1-c1cccc(C(=O)NC2CCSC2=O)c1` (stereo not drawn) [Compound 179]: the IC50 in test [2] fell in the range of 100 to 1000 nM. As for “2′-Aminomethyl-5′- (pyridin-4-ylcarbamoyl)- biphenyl-3-carboxylic acid 2-methoxy-propyl ester [Compound 42]”, in test [2], the IC50 was in the range of 100 to 1000 nM.

A word on the IC50: it is the concentration at which inhibition is half-maximal.
